Patent US12037350B2, “Compositions and methods for the prevention and/or treatment of mitochondrial disease, including Friedreich's ataxia” (Stealth BioTherapeutics Inc., priority 2020, dated 2024)

Experiments:
[1] = system: frataxin deficient fibroblasts (GM03665) from Friedreich's ataxia patient; assay: Frataxin Deficient Fibroblast Viability Assay (BSO Assay); format: cell-based; conditions: for EC50: Homo sapiens, Fibroblast, FA patient fibroblasts pretreated with compound, BSO 10 mM, MTT after 48 hrs
Protocol: Example 12: Frataxin Deficient Fibroblast Viability Assay (the “BSO Assay”)
This Example was used to evaluate the various new compositions for their potential efficacy in the treatment of Friedreich's Ataxia (FA or FRDA)—substantially as described in the above cited Reference (Matthias et al.).
The stock solutions of the test articles (and control compounds) were prepared in dimethyl sulfoxide (DMSO at 10 mM), Working stock solutions (2 times concentrated) were prepared on the day of the experiment in respective cell culture medium to be used for assay (detailed medium description below). A listing of compounds used as test articles in this Example 12 are found in Table 1, below.
A patient derived frataxin deficient fibroblast cell line was obtained from Coriell Institute. More specifically, the following cell lines/DNA samples were obtained from the NIGMS Human Genetic Cell Repository at the Coriell Institute for Medical Research: GM03665. To evaluate importance of various growth conditions on cell susceptibility to BSO toxicity cells were grown on:
MEM (Sigma-Aldrich) 15% Fetal Bovine Serum (FBS) without growth factors;
MEM (Sigma-Aldrich) 15% FBS with growth factors (Catalogue number 100-18B, Recombinant Human FGF-basic (154 a.a.) and catalogue number AF-100-15, Animal-Free Recombinant Human EGF from Peprotech);
MEM199/MEM EBS (Bioconcept Ltd.) 10% FBS, insulin 10 μg/ml, L-glutamine 2 mM with growth factors (Catalogue number 100-18B, Recombinant Human FGF-basic (154 a.a.) and catalogue number AF-100-15, Animal-Free Recombinant Human EGF from Peprotech).
To conduct an experiment, fibroblast cells (from all growth conditions) were seeded (100 μL (cells 3×10^3/well) on 96-well plates in MEM199/MEM EBS medium 10% FBS, insulin 10 μg/mL, L-glutamine 2 mM with growth factors and allowed to grow on plate for 24 hrs. After 24 hrs., media was removed and then test compounds of interest were added (100 μL, 2 times concentrated stock) to 96-well plates (end DM80 concentration not exceeding 0.5%) and incubated for 24 hours. Then L-buthionine-sulfoximine (BSO, from Acros Organics, Cat. No. 235520010) was added (100 μL, 2 times concentrated stock) at end concentrations ranging from 1 to 10 mM. Both test compounds and BSO were dissolved in MEM199/MEM EBS medium 10% FBS, insulin 10 μg/mL, L-glutamine 2 mM with growth factors. Cell viability was monitored and either after 24- or 48-hours cell viability was assayed by MTT (Thiazolyl blue tetrazolium bromide) assay. For the MTT assay, media was removed and 100 μL of MTT 1 mg/mL was added, incubated for 2 hours at +37° C., then medium was removed and 100 μL of isopropanol added to dissolve sediment. Absorption was measured at 570 (OD570) and 650 (QD650) nm wavelengths. Control cells (vehicle instead of BSO and compound) and vehicle control (with BSO, but vehicle instead of test compound) were treated in the same manner as ceils with BSO and compound. All cell media contained penicillin and streptomycin 100 U/mL each.
Absorption readouts were processed as follows: ValueΔ=ValueOD570−ValueOD650 and the obtained values were used to calculate cell viability as % of control cell (i.e., no BSO, no compound, just vehicle) viability.
Except as otherwise indicated in Table 1, all samples were run in at least 3 replicates for test compounds and at least 8 replicates for controls (i.e., both control (no BSO, no compound) and vehicle control (i.e., with BSO, no compound). Exact N per data points are indicated in the figures/table legends. Results for the compounds (test articles and controls) tested are listed in Table 1, below.
This is a cell-based assay measuring cytotoxicity which results from oxidative stress subsequent to depletion of endogenous glutathione defense mechanisms. The cells were primary Friedreich Ataxia (FA) patient fibroblasts which were incubated for 48 hrs. in BSO, an inhibitor of gamma glutamyl synthetase, an enzyme required for glutathione production. […]

[2] = system: HepG2 human hepatocarcinoma cells; assay: Rotenone ATP Assay (Complex I by-pass assay); format: cell-based
Protocol: Example 13: Rotenone ATP Assay (a Complex I by-Pass Assay)
This assay has been adapted from Haefeli R H, Erb M, Gemperli A C, Robay D, Courdier Fruh I, et al. (2011) NQO1-Dependent Redox Cycling of Idebenone: Effects on Cellular Redox Potential and Energy Levels. PLoS ONE 6(3): e17963. HepG2 human hepatocarcinoma cells are co-incubated with the electron transport chain complex I toxin rotenone +/− compounds of interest and the corresponding effect on ATP synthesis is measured with a bioluminescent substrate.
The stock solutions of the test articles (See Table 1, below for a list of the test articles examined using this assay) were prepared in dimethyl sulfoxide (DMSO at 10 mM). Working stock solutions were prepared on the day of the experiment in glucose free, serum free Dulbecco's modified Eagles medium (DMEM) supplemented with 50 micromolar rotenone.
In brief, HepG2 cells were plated at 25,000 cells per well in low glucose (1 gram/Liter) DMEM medium+10% fetal calf serum and incubated for 24 hours. The following day, the media was decanted and subsequently replaced with glucose free/serum free DMEM which has been supplemented with 50 micromolar rotenone and compound of interest. Serial dilutions of compound were prepared in 3× dilutions beginning at 25 micromolar. The cells were incubated for 60 minutes in a humidified tissue culture incubator. Following incubation, ATP levels were quantified via bioluminescent assay (Promega […] Glo Assay kit) and readings were captured on a standard microplate reader.
ATP bioluminescence is plotted versus the log of compound of interest and data are used to generate EC50 values. Curve fitting is performed using a sigmoidal dose response curve fit function (GraphPad Prism software).
EC50 values were derived from seven-point dose response curves performed on n=3 technical replicates per dose. Robustness of curve fit was assessed as a quality control measure, with an R squared value of at least 0.80 being required for a successful curve fit. Compounds of interest showing an increase in ATP bioluminescence relative to vehicle control were verified in an independent biological replicate of n=3 technical replicates per dose.
This assay is a direct measure of the ability of compounds of interest to restore ATP production under conditions of inhibition of Complex I of the mitochondrial electron transport chain. As the majority of ATP produced via the electron transport chain is thought to derive from Complex I activity, significant impairment in Complex I function has dire biological consequences. Of note, Complex I mutations are thought to drive pathophysiology in multiple mitochondrial diseases, including Leigh syndrome and Leber's Hereditary Optic Neuropathy (LHON), while diminished Complex I activity and the resultant attenuation of ATP production has been shown in neurodegenerative diseases, including Friedreich's Ataxia, Parkinson's Disease and Huntington's Disease. In brief, most compounds were tested in the Rotenone Oxygraph Assay instead of this assay but only Idebenone was active amongst Omaveloxolone, Idebenone and Vatiquinone.

[3] = system: GM03665 cells (fibroblasts from a subject with Friedreich's ataxia); assay: RSL-3 Toxicity Assay (RSL-3 Assay); format: cell-based, human; conditions: Homo sapiens, Fibroblast; GM03665 cells, RSL-3 2 μM, 24 hours, MTT
Source text: Example 14: RSL-3 Toxicity Assay (RSL-3 Assay)
This assay has been adapted from: Hinman, A., Holst, C. R., Latham, J. C., Bruegger, J. J., Ulas, G., McCusker, K. P., Amagata, A., Davis, D., Hoff, K. G., Kahn-Kirby, A. H., Kim, V., Kosaka, Y., Lee, E., Malone, S. A., Mei, J. J., Richards, S. J., Rivera, V., Miller, G., Trimmer, J. K., Shrader, W. D., “Vitamin E hydroquinone is an endogenous regulator of ferroptosis via redox control of 15-lipoxygenase”, (2018) PLoS ONE 13(8): e0201369.
In brief, GM03665 cells (Coriell Institute) were seeded in 96-well plates (Sarstedt) in DMEM cell culture media containing 10% Fetal Bovine serum and 1% Penicillin-Streptomycin (Pen-Strep) antibiotic mix at the amount of 2×10^4/mL (100 μL or 2×10^3 cells per well). Cells were left to rest overnight at 37° C. in a humidified atmosphere with 5% CO2 to allow attachment of the cells to the culture plate. Test compounds were prepared as DMSO stocks (10 mM) and were serially diluted in cell culture media to obtain 2× working solutions. Cell media was discarded and replaced by 50 μL of test compound solutions or cell media with vehicle for control wells. Within 15 minutes, 2× working solution (4 μM) of 1S,3R-RSL-3 (CAS #1219810-16-8, Sigma-Aldrich) (diluted from 5 mM DMSO stock in cell culture media) was added. Final reaction volume was 100 μL and final DMSO concentration in reaction was kept below 0.2% (v/v) and equal in all wells. Final RSL-3 concentration was 2 μM and test compound final concentrations in reaction were up to 1000 nM. After 24 hours of incubation cell viability was assessed by MTT test. MTT (Sigma-Aldrich) solution 1 mg/mL in IX PBS (pH=7.4) was prepared 1 hour before the assay and filtered through Filtropur S 0.2 filters (Sarstedt). Cell media with test compounds was discarded and 100 μL of MTT solution was added to cells. The plates were incubated for 2 hours at +37° C. Thereafter, the MTT solution was removed and 100 μL of isopropanol was added to dissolve sediment. Absorption at 570 and 650 nm was measured using Hidex Sense microplate reader.
Compounds A and B and idebenone were not examined in this assay. The data presented in Table 1 indicates omaveloxolone was not active in this assay but that vatiquinone was active.
Discussion—Both BSO and RSL-3 are frequently utilized to induce the regulated cell death pathway known as ferroptosis. Ferroptosis is thought to require the joint activity of iron catalyzed oxidative stress and lipid peroxidation and has been described in cell and animal models of multiple neurodegenerative diseases, including Friedreich's Ataxia, Huntington Disease, Parkinson Disease and Alzheimer's Disease. […] Of note, the results for Compounds C-I and K were favorable with respect to inhibition of ferroptotic cell death when either BSO or RSL3 were used as initiating stimulus, differentiating these compounds from omaveloxolone and idebenone.

HepG2 cells = assay: Rotenone Oxygraph Assay (high-resolution respirometry of intact HepG2 cells); format: cell-based, human; conditions: Homo sapiens; intact HepG2 cells, rotenone 1 μM, compound 10 μM, increase in respiration rate
Protocol: Example 15: Rotenone Oxygraph Assay (High-Resolution Respirometry of Intact HepG2 Cells)
The Oxygraph-2k (O2k, OROBOROS INSTRUMENTS, Austria) was used for measurements of respiration of intact cells. The respirometry was performed in Dulbecco's Modified Eagle Medium (DMEM) high glucose without supplements. All experiments were performed at 37° C.
HepG2 cells (ATCC collection code HB-8065™) were cultured in 10 cm^2 culture dishes in DMEM high glucose medium supplemented with 10% fetal bovine serum (FBS) and 100 units/mL penicillin and 100 μg/mL streptomycin until approximately 90% confluence was reached. Immediately prior to performing the respirometric assay, the cells were washed with media without FBS, trypsinized and resuspended in DMEM high glucose without FBS.
The final concentration of intact cells in the O2k-chamber was 0.5-10^6/mL. After stabilization of respiration, the Complex I inhibitor, rotenone, at 1 μM final concentration was added to inhibit electron flux via Complex I. Then, compound to be tested was added at 10 μM final concentration, and the change in respiration rate of intact cells was monitored. […]

Row | Structure (SMILES) | protection against BSO induced cell death (in words) ([1]; BSO Assay, text statement) | EC50 [1] | Complex I by-pass activity in Rotenone ATP Assay (in words) [2] | EC50 ([2]; Homo sapiens, 1 h, HepG2, 50 micromolar rotenone, 60 minutes, ATP bioluminescence) | EC50 [3] | activation at 10 µM (HepG2 cells)
1 | CC1=C(C)C(=O)C(C/C=C(\C)CC/C=C(\C)CCC=C(F)F)=C(C)C1=O [Compound A, 2-((2E,6E)-11,11-difluoro-3,7-dimethylundeca-2,6,10-trien-1-yl)-3,5,6-trimethylcyclohexa-2,5-diene-1,4-dione] | best of the test compounds | 67.1 nM |  |  |  | 
2 | COC1=C(OC)C(=O)C(C/C=C(\C)CC/C=C(\C)CCC=C(F)F)=C(C)C1=O [Compound B, 2-((2E,6E)-11,11-difluoro-3,7-dimethylundeca-2,6,10-trien-1-yl)-5,6-dimethoxy-3-methylcyclohexa-2,5-diene-1,4-dione] |  | 199 nM | comparable to that of Idebenone | 1020 nM |  | 
3 | CCCCCCCCCCC1=C(C)C(=O)C(OC)=C(OC)C1=O [Compound D, reference compound] |  | 159 nM |  |  | 70 nM | 30%
4 | COC1=C(OC)C(=O)C(CCCCCC(F)(F)F)=C(C)C1=O [Compound E, 2,3-dimethoxy-5-methyl-6-(6,6,6-trifluorohexyl)cyclohexa-2,5-diene-1,4-dione] |  | 359 nM |  |  | 135 nM | 49%
5 | COC1=C(OC)C(=O)C(CCCCCC(F)F)=C(C)C1=O [Compound F, 2-(6,6-difluorohexyl)-5,6-dimethoxy-3-methylcyclohexa-2,5-diene-1,4-dione] |  | 689 nM |  |  | 146 nM | 44.7%
6 | COC1=C(OC)C(=O)C(CCCCCCF)=C(C)C1=O [Compound G, 2-(6-fluorohexyl)-5,6-dimethoxy-3-methylcyclohexa-2,5-diene-1,4-dione] |  | 555 nM |  |  | 205 nM | 42.7%
7 | CCCCCCCC1=C(C)C(=O)C(OC)=C(OC)C1=O [Compound H, 2-heptyl-5,6-dimethoxy-3-methylcyclohexa-2,5-diene-1,4-dione] |  | 241 nM |  |  | 56 nM | 41.8%
8 | COC1=C(OC)C(=O)C(CCCC(F)(F)F)=C(C)C1=O [Compound I, 2,3-dimethoxy-5-methyl-6-(4,4,4-trifluorobutyl)cyclohexa-2,5-diene-1,4-dione] |  | 772 nM |  |  | 479 nM | 37.8%
9 | COC1=C(OC)C(=O)C(CCC[Si](C)(C)C)=C(C)C1=O [Compound K, 2,3-dimethoxy-5-methyl-6-(3-(trimethylsilyl)propyl)cyclohexa-2,5-diene-1,4-dione] |  |  |  |  | 75 nM | 41.4%
